According to patent US5556744A, “Methods and compositions for diagnosing and treating certain HIV infected patients” (The Trustees of the University of Pennsylvania, priority 1994, dated 1996):

Legend:
[1] = tested on: maternal HIV+ sera (antibodies); assay: RIA / ELISA binding of maternal HIV+ sera to gp120 and gp41 peptides (Example 3); set-up: species or system human; settings: for Number of maternal sera binding to peptide: 20 maternal sera; for Binding of maternal sera to peptide (in words): Example 3; for Number of binding maternal sera from the non-transmission group: non-transmission group (13 sera); for Number of binding maternal sera from the transmission group: vertical transmission group (7 sera)
Method in brief: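 Maternal sera, diluted 1:50 and 1:500, were bound overnight at 4°C to peptides immobilized at 10 μg/ml (pH 9.6 carbonate) and blocked with 1% BSA. Read-out was ¹²⁵I-labelled anti-human IgG counts or HRP-TMB OD450. Signal with peptide minus without was expressed relative to seronegative serum.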

HIV-IIIB viral isolate = assay: Neutralization assay (HIV-IIIB, Hut-78 cells, p24 antigen ELISA); type: cell-based, HIV-1 IIIB
Method: The H9 cell line (a cutaneous T lymphoma line) infected by HIV-IIIB [ATCC CRL 8543] was used in the neutralization assay. The H9 cell line infected by HIV-MN was used in the anti-syncytial assays. SupT1 and Hut78 cells were used as the target cell lines for the anti-syncytial and neutralization assays. All cell lines were obtained from the National Institutes of Health AIDS Repository (Bethesda, Md.).
In a neutralization assay, 20 μl of maternal sera samples was placed in 96 round bottom well plates at final dilutions of 1:10, 1:90 and 1:810 in RPMI. The HIV-IIIB viral isolate was diluted in RPMI to a TCID50 of 100 units/ml. Twenty μl of the virus solution was placed in each well and the plate was incubated for one hour at 4° C. Hut-78 cells were incubated with 2 μg/ml of polybrene for one hour at 37° C. in a CO2 incubator. The HUT-78 cells were washed and resuspended in fresh RPMI to a final concentration of 4×10^6 cells/ml. Ten μl of the cell suspension was added to each well and the plate was incubated for one hour in a 37° C., CO2 incubator.
Fifteen μl of the serum/cell/virus solution was aliquoted to a new plate containing 200 μl of fresh RPMI and incubated for 6 days. After 6 days, 100 μl was used to analyze for p24 antigen. The p24 capture ELISA assay kit (Coulter Corporation, Hialeah, Fla.) was used to perform the measurements.
Further, sera samples at the same dilutions as described above were tested for residual p24 core protein or antibody to insure the results were due only to viral infection.

[2] = Serum No. 1, Non-Transmission Group
[3] = Serum No. 2, Non-Transmission Group
[4] = Serum No. 3, Non-Transmission Group
[5] = Serum No. 4, Transmission Group
[6] = Serum No. 5, Transmission Group
[7] = Serum No. 6, Non-Transmission Group
[8] = Serum No. 7, Non-Transmission Group
[9] = Serum No. 8, Non-Transmission Group
[10] = Serum No. 9, Non-Transmission Group
[11] = Serum No. 10, Transmission Group
[12] = Serum No. 11, Non-Transmission Group
[13] = Serum No. 12, Non-Transmission Group
[14] = Serum No. 13, Transmission Group
[15] = Serum No. 14, Transmission Group
[16] = Serum No. 15, Transmission Group
[17] = Serum No. 16, Non-Transmission Group
[18] = Serum No. 17, Non-Transmission Group
[19] = Serum No. 18, Non-Transmission Group
[20] = Serum No. 19, Transmission Group
[21] = Serum No. 20, Non-Transmission Group

Row | Sequence | Number of maternal sera binding to peptide [1] | Binding of maternal sera to peptide (in words) [1] | Binding of maternal HIV+ serum to peptide (sera/NHS ratio) [1, 2] | Binding of maternal HIV+ serum to peptide (sera/NHS ratio) [1, 3] | Binding of maternal HIV+ serum to peptide (sera/NHS ratio) [1, 4] | Binding of maternal HIV+ serum to peptide (sera/NHS ratio) [1, 5] | Binding of maternal HIV+ serum to peptide (sera/NHS ratio) [1, 6] | Binding of maternal HIV+ serum to peptide (sera/NHS ratio) [1, 7] | Binding of maternal HIV+ serum to peptide (sera/NHS ratio) [1, 8] | Binding of maternal HIV+ serum to peptide (sera/NHS ratio) [1, 9] | Binding of maternal HIV+ serum to peptide (sera/NHS ratio) [1, 10] | Binding of maternal HIV+ serum to peptide (sera/NHS ratio) [1, 11] | Binding of maternal HIV+ serum to peptide (sera/NHS ratio) [1, 12] | Binding of maternal HIV+ serum to peptide (sera/NHS ratio) [1, 13] | Binding of maternal HIV+ serum to peptide (sera/NHS ratio) [1, 14] | Binding of maternal HIV+ serum to peptide (sera/NHS ratio) [1, 15] | Binding of maternal HIV+ serum to peptide (sera/NHS ratio) [1, 16] | Binding of maternal HIV+ serum to peptide (sera/NHS ratio) [1, 17] | Binding of maternal HIV+ serum to peptide (sera/NHS ratio) [1, 18] | Binding of maternal HIV+ serum to peptide (sera/NHS ratio) [1, 19] | other results
1 | CFRPGGGDMRDNWREL [Peptide 466] | three | very strong binding | - (specific OD450 or cpm of sera sample binding to peptide divided by the specific OD450 or cpm of NHS sample binding to peptide, which value is less than 2) | - (specific OD450 or cpm of sera sample binding to peptide divided by the specific OD450 or cpm of NHS sample binding to peptide, which value is less than 2) | - (specific OD450 or cpm of sera sample binding to peptide divided by the specific OD450 or cpm of NHS sample binding to peptide, which value is less than 2) | - (specific OD450 or cpm of sera sample binding to peptide divided by the specific OD450 or cpm of NHS sample binding to peptide, which value is less than 2) | - (specific OD450 or cpm of sera sample binding to peptide divided by the specific OD450 or cpm of NHS sample binding to peptide, which value is less than 2) | + (which value is between 2 to 3) | - (specific OD450 or cpm of sera sample binding to peptide divided by the specific OD450 or cpm of NHS sample binding to peptide, which value is less than 2) | - (specific OD450 or cpm of sera sample binding to peptide divided by the specific OD450 or cpm of NHS sample binding to peptide, which value is less than 2) | ++ (which value is greater than 3) | - (specific OD450 or cpm of sera sample binding to peptide divided by the specific OD450 or cpm of NHS sample binding to peptide, which value is less than 2) | - (specific OD450 or cpm of sera sample binding to peptide divided by the specific OD450 or cpm of NHS sample binding to peptide, which value is less than 2) | - (specific OD450 or cpm of sera sample binding to peptide divided by the specific OD450 or cpm of NHS sample binding to peptide, which value is less than 2) | - (specific OD450 or cpm of sera sample binding to peptide divided by the specific OD450 or cpm of NHS sample binding to peptide, which value is less than 2) | - (specific OD450 or cpm of sera sample binding to peptide divided by the specific OD450 or cpm of NHS sample binding to peptide, which value is less than 2) | - (specific OD450 or cpm of sera sample binding to peptide divided by the specific OD450 or cpm of NHS sample binding to peptide, which value is less than 2) | - (specific OD450 or cpm of sera sample binding to peptide divided by the specific OD450 or cpm of NHS sample binding to peptide, which value is less than 2) | - (specific OD450 or cpm of sera sample binding to peptide divided by the specific OD450 or cpm of NHS sample binding to peptide, which value is less than 2) | + (which value is between 2 to 3) | Binding of maternal HIV+ serum to peptide (sera/NHS ratio) [1, 20]: - (specific OD450 or cpm of sera sample binding to peptide divided by the specific OD450 or cpm of NHS sample binding to peptide, which value is less than 2); Binding of maternal HIV+ serum to peptide (sera/NHS ratio) [1, 21]: - (specific OD450 or cpm of sera sample binding to peptide divided by the specific OD450 or cpm of NHS sample binding to peptide, which value is less than 2); Percent of the maternal serum samples that bound to the peptide ([1]; all 20 samples): 15%; Number of binding maternal sera from the non-transmission group [1]: three; Number of binding maternal sera from the transmission group [1]: Zero; Neutralizing activity of non-transmission sera which reacted with the peptide (HIV-IIIB viral isolate; Example 5): All 3 of these sera exhibited neutralizing activity; Number of samples which bound the peptide and possessed neutralization activity (HIV-IIIB viral isolate; sera which bound the peptide): all of them
2 | TLPCASDAKAYDTEV [Peptide 93] | six | Several maternal serum samples had reactivity | ++ (which value is greater than 3) | - (specific OD450 or cpm of sera sample binding to peptide divided by the specific OD450 or cpm of NHS sample binding to peptide, which value is less than 2) | - (specific OD450 or cpm of sera sample binding to peptide divided by the specific OD450 or cpm of NHS sample binding to peptide, which value is less than 2) | ++ (which value is greater than 3) | - (specific OD450 or cpm of sera sample binding to peptide divided by the specific OD450 or cpm of NHS sample binding to peptide, which value is less than 2) | + (which value is between 2 to 3) | ++ (which value is greater than 3) | + (which value is between 2 to 3) | - (specific OD450 or cpm of sera sample binding to peptide divided by the specific OD450 or cpm of NHS sample binding to peptide, which value is less than 2) | - (specific OD450 or cpm of sera sample binding to peptide divided by the specific OD450 or cpm of NHS sample binding to peptide, which value is less than 2) | - (specific OD450 or cpm of sera sample binding to peptide divided by the specific OD450 or cpm of NHS sample binding to peptide, which value is less than 2) | - (specific OD450 or cpm of sera sample binding to peptide divided by the specific OD450 or cpm of NHS sample binding to peptide, which value is less than 2) | - (specific OD450 or cpm of sera sample binding to peptide divided by the specific OD450 or cpm of NHS sample binding to peptide, which value is less than 2) | - (specific OD450 or cpm of sera sample binding to peptide divided by the specific OD450 or cpm of NHS sample binding to peptide, which value is less than 2) | - (specific OD450 or cpm of sera sample binding to peptide divided by the specific OD450 or cpm of NHS sample binding to peptide, which value is less than 2) | + (which value is between 2 to 3) | - (specific OD450 or cpm of sera sample binding to peptide divided by the specific OD450 or cpm of NHS sample binding to peptide, which value is less than 2) | - (specific OD450 or cpm of sera sample binding to peptide divided by the specific OD450 or cpm of NHS sample binding to peptide, which value is less than 2) | Binding of maternal HIV+ serum to peptide (sera/NHS ratio) [1, 20]: - (specific OD450 or cpm of sera sample binding to peptide divided by the specific OD450 or cpm of NHS sample binding to peptide, which value is less than 2); Binding of maternal HIV+ serum to peptide (sera/NHS ratio) [1, 21]: - (specific OD450 or cpm of sera sample binding to peptide divided by the specific OD450 or cpm of NHS sample binding to peptide, which value is less than 2); Number of binding maternal sera from the non-transmission group [1]: 5; Percent of binding maternal sera from the non-transmission group ([1]; of the sera which bound): 83%; Percent of binding maternal sera from the transmission group ([1]; of the sera which bound): 17%; Number of binding maternal sera from the transmission group [1]: 1; Number of samples which bound the peptide and possessed neutralization activity (HIV-IIIB viral isolate; sera which bound the peptide): 3; Percent of samples which bound the peptide and possessed neutralization activity (HIV-IIIB viral isolate; sera which bound the peptide): 50%
